Earlier results in patent publication US20040235753A1, “Oxytocin agonists” (priority 2001, published 2004).
Like-named read-outs stand apart in the source and are kept apart here.

Test system: erectile response
Conditions: male rats

## CC[C@H](C)[C@@H]1NC(=O)[C@H](Cc2ccc(O)cc2)NC(=O)[C@@H](N)CSSC[C@@H](C(=O)N2CCC[C@H]2C(=O)N[C@@H](CC(C)C)C(=O)NCC(N)=O)NC(=O)[C@H](CC(N)=O)NC(=O)[C@H](CCC(N)=O)NC1=O [OT, oxytocin]
i.c.v.
  erectogenic activity: erectogenic
i.v., doses required up to two orders of magnitude greater than i.c.v.
  erectogenic activity: erectogenic activity
